Test results from publication PMC12766730, “Controlled Self-Immolative Release of β‑Lapachone via an Optimized para-Hydroxybenzyl Linker for Targeted Pancreatic Cancer Therapy” (Journal of the American Chemical Society, 2025).
Read-outs that look alike come from different tables or passages of the source.

Legend:
[1] = HPLC stability assay of prodrugs in buffers pH 3, 5, 7, 7.4 (PBS), 9 at 37 °C for 72 h without trigger; assay type: physicochemical; conditions: for stability of the prodrug without triggering enzyme: 37 °C, 72 h, pH 3–9; for premature lapachone release, percent of total prodrug: 72 h at 37 °C, no H2O2
Description: The diastereomeric mixture of each β-glucuronide–PHB-β-lapachone prodrug (16a–j) and PAB derivative 22 were then tested for stability in citrate-phosphate buffers across a range of pHs (3, 5, 7, 7.4 (PBS), 9) via an HPLC stability assay. For derivatives 16a, 16b, 16d, 16e, 16h, and 16j, when no β-glucuronidase enzyme was added, both diastereomers of 16 were fully stable at 37 °C for 72 h (Figures a,d, S63, S64, S66–68, S71, and S73). […] This premature release was greatest at acidic pH 3 for 16g, with very minimal lapachone release detected at pH 5–9 (Figure c). The released lapachone was quantified and compared to the starting concentration of each prodrug to calculate the percent of the prodrug that had been prematurely released (Figures f,g, S76). […] Therefore, a trade-off exists between ring activation, improving the release rate from 3 while also decreasing prodrug stability, and it rendered 16g clinically disadvantageous.  5 Stability of prodrugs is pH dependent. The representative HPLC traces for (a) a stable prodrug 16a and (b) an unstable prodrug 16g are shown after incubation at 37 °C in pH 7.4 PBS buffer. […] (c) The area of the lapachone peak for 16g normalized to the IS was plotted, displaying substantial growth over time at pH 3. […] For panels c–g, each value is plotted as the mean ± SD of three replicates. The HPLC traces (Figures S50–S62) and peak area graphs (Figures S63–S75) for all other derivatives can be found in the Supporting Information. The stability of 26 was also evaluated from pH 3–9 (Figures d,f–h S86–S87). […] This degradation was the largest at pH 9, with a measurable decrease in the prodrug peak area after 72 h (Figure g). The lapachone released after 72 h was quantified using a standard curve (Tables S6.1–S6.2). At pH 3 and 5, approximately 0.2% of the total prodrug lapachone had been released.

[2] = tested on: PANC-1; experiment: PDAC cell viability after 72 h of treatment, PANC-1; assay type: cell-based
Description: (§1) All ortho-quinone prodrug derivatives were tested on two pancreatic cancer cell lines, PANC-1 and AsPC-1, to assess efficacy in cell killing (Figures , S88–89, S91, Tables , and S8.1). Exogenous β-glucuronidase was added to the cell media to mimic the extracellular enzyme present in the TME. […] Those derivatives with release rates slower than that of 16a, like 16e, had less efficacy in cells comparatively (Table ).
(§2) 7 PDAC cell viability with prodrug treatment. Representative PANC-1 (a) and AsPC-1 (b) cell viability data of four β-lapachone prodrug derivatives after 72 h of treatment with exogenous β-glucuronidase added. Panels (c, d) show the toxicity of functional prodrugs up to 100 μM in PANC-1 (c) and AsPC-1 (d) cells without exogenous β-glucuronidase enzyme present after 72 h incubation.
(§3) To assess the TW of the prodrug derivatives, we tested each of them in both the PANC-1 and AsPC-1 cell lines at up to 100 μM without the β-glucuronidase enzyme present. In agreement with the HPLC stability assay data, we saw no toxicity in all stable prodrug derivatives up to this concentration (Figure c,d). […] In comparison, all the stable glucuronide prodrug derivatives retained 100% viability at 100 μM. […] It is generally considered that a drug has a good therapeutic safety profile if the TI is greater than 10, which our best derivatives far exceed, signaling that our prodrug is safe to deliver systemically in future in vivo experiments and should not cause any adverse effects in areas where β-glucuronidase is not overexpressed. ,

[3] = tested on: AsPC-1; experiment: PDAC cell viability after 72 h of treatment, AsPC-1; assay type: cell-based; conditions: for IC50: Homo sapiens
Description: as §1, §2, §3

[4] = Release of β-lapachone (1) from deprotected PHB/PAB linkers (3 or 25) in citrate-phosphate buffers pH 3–10, analytical HPLC; assay type: physicochemical; conditions: for release rate faster than unsubstituted parent: 3f vs 3a, 25 vs 4
Description: First, the purified mixture of two prodrug diastereomers (16a–j) for each PHB derivative was incubated with β-glucuronidase. This enabled full removal of the glucuronide moiety from both diastereomers of the prodrug within 2–15 min, leaving a mixture of two PHB-β-lapachone enantiomers (3a–j, Figure c). For PAB compound 22, penicillin G amidase was used in place of β-glucuronidase to give a mixture of two PAB-β-lapachone enantiomers (25). The 3 (or 25) solution was then spiked into citrate-phosphate buffers from pH 3–10, and release of 1 from 3 (or 25) was measured at various time points by analytical HPLC. A single peak for the two enantiomers of 3 was observed after glucuronide removal, and thus the measured k obs was for both enantiomers in the mixture.
3 Release rate comparison for PHB and PAB prodrugs. The mechanisms of release for the β-glucuronide–PHB prodrug derivatives (a) and the PAB derivative (b) are shown. β-glucuronidase or penicillin G amidase deprotects the PHB or PAB linkers, yielding 3 or 25, respectively. A 1,6-elimination then occurs, releasing the hydroquinone form of β-lapachone, which then oxidizes into the ortho-quinone. (c) The substituents on the PHB/PAB linker for each derivative are shown and classified into which strategy they employed, lowering phenolate pK a or stabilizing the elimination TS. BLap = β-lapachone in its α-hydroxy ketol form (refer to panel a). The predicted pK a values are also shown, calculated using MolGpKa. (d) The representative HPLC traces of a release experiment for 3g at pH 7 are shown (RT: retention time) normalized to the warfarin (WF) internal standard (IS, RT = 11.6 min). The peak for 3g (RT = 12.5 min) decreases while the peak for 1 (RT = 10.8 min) increases over time. The traces for all other derivatives at each pH are included in Figures S10–S20, S34–S45. (e) The calculated k obs values from these release kinetic experiments for each PHB derivative are plotted versus pH on a logarithmic scale. Derivatives 3a–e were designed to lower the PHB phenol pK a, while derivatives 3f–j were designed to stabilize the 1,6-elimination TS. (f) The first-order reaction rate constants of the PAB derivatives 4 (pink) and 25 (purple) are plotted together with 3a (black) and the best-performing PHB derivatives 3f (cyan) and 3i (dark green) for direct comparison. The derivations of the plotted first-order k obs values from linearized initial velocities measured in triplicate are shown in Figures S23–S33. […]
Over time, the intensity of the 3/25 peak decreased, while the intensity of the 1 peak increased (Figure d). A standard curve for β-lapachone (Figure S22) was prepared, enabling quantification of the released β-lapachone.

[5] = Homo sapiens, PANC-1, exogenous β-glucuronidase added, average ± SD of biological replicates, read-out: PANC-1 IC50
[6] = ASPC1, exogenous β-glucuronidase added, average ± SD of biological replicates, read-out: AsPC-1 IC50
[7] = Homo sapiens, PANC-1, exogenous β-glucuronidase added, representative experiment, read-out: IC50 on PANC-1, representative viability data (Figure 7a)
[8] = ASPC1, exogenous β-glucuronidase added, representative experiment, read-out: IC50 on AsPC-1, representative viability data (Figure 7b)
[9] = exogenous β-glucuronidase added, average ± SD of biological replicates

## COc1cc(O[C@@H]2O[C@H](C(=O)O)[C@@H](O)[C@H](O)[C@H]2O)cc(OC)c1CC1(O)C(=O)C2=C(OC(C)(C)CC2)c2ccccc21 (mixture of isomers) [16g]
[1]
  stability of the prodrug without triggering enzyme: trace β-lapachone release was detected
[2]; [5]
  IC50: 1.2 ± 0.3 µM
[2]; Homo sapiens, PANC-1, no enzyme, value printed in the picture, read-out: IC50, prodrug toxicity without β-glucuronidase on PANC-1 (Figure 7c)
  IC50: 20 µM
[2]; Homo sapiens, PANC-1, no release-triggering enzyme, tested up to 100 μM, read-out: IC50 in PANC-1 without exogenous β-glucuronidase
  IC50: 26 ± 6 µM
[3]; [6]
  IC50: 1.6 ± 0.6 µM
[3]; ASPC1, no enzyme, value printed in the picture, read-out: IC50, prodrug toxicity without β-glucuronidase on AsPC-1 (Figure 7d)
  IC50: 68 µM
[3]; ASPC1, no release-triggering enzyme, tested up to 100 μM, read-out: IC50 in AsPC-1 without exogenous β-glucuronidase
  IC50: 75 ± 7 µM

## CCCN(C)S(=O)(=O)c1cc(CC2(O)C(=O)C3=C(OC(C)(C)CC3)c3ccccc32)ccc1O[C@@H]1O[C@H](C(=O)O)[C@@H](O)[C@H](O)[C@H]1O (single isomer, unassigned) [16e]
[1]
  stability of the prodrug without triggering enzyme: fully stable

## COc1cc(O)ccc1CC1(O)C(=O)C2=C(OC(C)(C)CC2)c2ccccc21 (centres unmarked) [3f]
[4]
  release rate faster than unsubstituted parent: around 2 orders of magnitude

## COc1cc(O)cc(OC)c1CC1(O)C(=O)C2=C(OC(C)(C)CC2)c2ccccc21 (centres unmarked) [3g]
[4]; pH 5, compared with unsubstituted 3a
  acceleration of release rate at pH 5: ~2200 fold
[4]; pH 7.5, compared with unsubstituted 3a
  acceleration of release rate at pH 7.5: ~800 fold

## CC1(C)CCC2=C(O1)c1ccccc1C(O)(Cc1ccc(O[C@@H]3O[C@H](C(=O)O)[C@@H](O)[C@H](O)[C@H]3O)cc1)C2=O (some centres unmarked) [16a]
[1]
  stability of the prodrug without triggering enzyme: fully stable
[2]; [5]
  IC50: 9.6 ± 0.9 µM
[2]; [7]
  IC50: 11 µM
[3]; [6]
  IC50: 19 ± 3 µM
[3]; [8]
  IC50: 16 µM

## CC1(C)CCC2=C(O1)c1ccccc1C(O)(Cc1cc(F)c(O[C@@H]3O[C@H](C(=O)O)[C@@H](O)[C@H](O)[C@H]3O)c(F)c1)C2=O (some centres unmarked) [16b]
[1]
  stability of the prodrug without triggering enzyme: fully stable
[2]; [5]
  IC50: 11 ± 2 µM
[3]; [6]
  IC50: 24 µM

## CC1(C)CCC2=C(O1)c1ccccc1C(O)(Cc1c(F)c(F)c(O[C@@H]3O[C@H](C(=O)O)[C@@H](O)[C@H](O)[C@H]3O)c(F)c1F)C2=O (some centres unmarked) [16c]
[1]
  stability of the prodrug without triggering enzyme: trace β-lapachone release was detected
[2]; [9]
  PANC-1 IC50: Inactive
[3]; [9]
  AsPC-1 IC50: Inactive

## CC1(C)CCC2=C(O1)c1ccccc1C(O)(Cc1c(F)cc(O[C@@H]3O[C@H](C(=O)O)[C@@H](O)[C@H](O)[C@H]3O)cc1F)C2=O (some centres unmarked) [16d]
[1]
  stability of the prodrug without triggering enzyme: fully stable
[2]; [5]
  IC50: 21 ± 3 µM

## COc1cc(CC2(O)C(=O)C3=C(OC(C)(C)CC3)c3ccccc32)cc(OC)c1O[C@@H]1O[C@H](C(=O)O)[C@@H](O)[C@H](O)[C@H]1O (some centres unmarked) [16h]
[1]
  stability of the prodrug without triggering enzyme: fully stable
[2]; [5]
  IC50: 1.2 ± 0.4 µM
[3]; [6]
  IC50: 3.2 ± 1.7 µM

## CC(c1ccc(O[C@@H]2O[C@H](C(=O)O)[C@@H](O)[C@H](O)[C@H]2O)cc1)C1(O)C(=O)C2=C(OC(C)(C)CC2)c2ccccc21 (some centres unmarked) [16i]
[1]
  stability of the prodrug without triggering enzyme: trace β-lapachone release was detected
[2]; [5]
  IC50: 0.8 ± 0.5 µM
[2]; [7]
  IC50: 0.3 µM
[3]; [6]
  IC50: 0.9 ± 0.5 µM
[3]; [8]
  IC50: 0.5 µM

## COCCOc1cc(O[C@@H]2O[C@H](C(=O)O)[C@@H](O)[C@H](O)[C@H]2O)ccc1CC1(O)C(=O)C2=C(OC(C)(C)CC2)c2ccccc21 (some centres unmarked) [16j]
[1]
  stability of the prodrug without triggering enzyme: fully stable
[2]; [5]
  IC50: 1.1 ± 0.4 µM
[3]; [6]
  IC50: 2.8 ± 1 µM

## CC1(C)CCC2=C(O1)c1ccccc1C(=O)C2=O [compound 1, β-lapachone, reference compound]
[2]; [5]
  IC50: 1.8 ± 0.2 µM
[3]; [6]
  IC50: 5.4 ± 0.7 µM
[3]; [8]
  IC50: 4.7 µM

## COc1cc(NC(=O)Cc2ccccc2)ccc1CC1(O)C(=O)C2=C(OC(C)(C)CC2)c2ccccc21 (centres unmarked) [compound 22]
[1]
  stability of the prodrug without triggering enzyme: trace β-lapachone release was detected

## COc1cc(N)ccc1CC1(O)C(=O)C2=C(OC(C)(C)CC2)c2ccccc21 (centres unmarked) [compound 25]
[4]
  release rate faster than unsubstituted parent: around 2 orders of magnitude

## CC1(C)CCC2=C(O1)c1ccccc1C(O)(Cc1ccc(B(O)O)cc1)C2=O (centres unmarked) [compound 26, reference compound]
[1]; pH 3
  premature lapachone release, percent of total prodrug: approximately 0.2%
[1]; pH 5
  premature lapachone release, percent of total prodrug: approximately 0.2%
[1]; pH 7
  premature lapachone release, percent of total prodrug: ~0.6%
[1]; pH 7.4
  premature lapachone release, percent of total prodrug: ~2.3%
[1]; pH 9
  premature lapachone release, percent of total prodrug: ~10.9%

## CC1(C)CCC2=C(O1)c1ccccc1C(O)(Cc1ccccc1)C2=O (centres unmarked) [compound 27, reference compound]
[2]; exogenous β-glucuronidase added, average ± SD of biological replicates, read-out: PANC-1 IC50
  IC50: 70 µM
[2]; no release-triggering enzyme, tested up to 100 μM, read-out: IC50 in PANC-1 without exogenous β-glucuronidase
  IC50: 70 µM
